Reference: publication PMC6568410, “A scorpion venom peptide derivative BmKn‒22 with potent antibiofilm activity against Pseudomonas aeruginosa” (PLoS ONE, 2019)
Where no end group is shown, it is not given here.

Experiments:
[1] = test system: P. aeruginosa PAO1 biofilms; assay: Antibiofilm activity of BmKn-22 and azithromycin alone or in combination, crystal violet; type: cell-based, Pseudomonas aeruginosa
Method: (§1) The effect of BmKn‒2 peptide and derivatives on biofilm formation of P. aeruginosa PAO1 was determined according to the method published previously with some modifications. Briefly, 100 μL of the test peptides was plated into the wells of flat-bottomed 96-well microtiter plates (Nunc™, Roskilde, Denmark) at the final concentrations of 200 ‒ 800 μM. Aliquots of the P. aeruginosa PAO1 suspension were then inoculated to the wells of 96-well microtiter plates to obtain a final concentration of 10^6 CFU/mL. Culture without the test peptides was used as the untreated control. After incubation at 37 ^OC for 24 h without agitation, planktonic cells were removed and the plates were gently rinsed twice with phosphate buffered saline (PBS) pH 7.4. Biofilms were then stained with 0.1% crystal violet solution (Merck, Darmstadt, Germany) for 10 minutes at room temperature. Excess stains were rinsed off with PBS pH 7.4 and the plates were left dry at 37 ^OC for 2 h. Subsequently, biofilm biomass was solubilized with 30% acetic acid and the optical density (OD) measured at 550 nm using a microplate reader (BioTek Synergy HT).
Briefly, P. aeruginosa PAO1 suspension (10^6 CFU/mL, final concentration) was added to the wells of flat-bottomed 96-well microtiter plates (Nunc) containing the test peptide, azithromycin (AZM; Sigma) alone or in combinations. […] Biofilm formation was employed by measuring biofilm biomass stained with crystal violet as a protocol described in previous section.

[2] = test system: L929 mouse fibroblast cells; assay: Cytotoxicity, MTT assay; type: cell-based; conditions: 800 µM, 24 h; for Cell viability (%): L929 cells
Method: The toxicity of the test peptides against L929 mouse fibroblast cells was assessed by 3-(4,5-dimethylthiazol-2-yl)-2,5-diphenyltetrazolium bromide (MTT) assay. L929 mouse fibroblast cells from American Type Culture Collection (ATCC, Manassas, VA, USA) were cultured in Dulbecco's Modified Eagle Medium (DMEM; HyClone, Utah, USA) supplemented with 10% fetal bovine serum (Gibco, South America), 10 mM 4-(2-hydroxyethyl)-1 piperazineethanesulfonic acid (HEPES; HyClone, Utah, USA), 2 mM L-glutamine (Gibco, Brazil) and 100 U/mL penicillin and 100 μg/ml streptomycin (Gibco, USA) in a 5% CO2 atmosphere at 37°C. L929 cells (2×10^4 cells/well) were seeded in 96-well plates (Nunc) and incubated overnight. The culture medium was discarded and replaced by 100 μL of fresh DMEM containing the test compounds (final concentration 800 μM). Cells without the test compounds served as untreated control. After 24 h incubation, 20 μL of MTT solution (5 mg/mL; Sigma, St. Louis, MO, USA) was added and incubated for 3 h. The culture supernatant was removed and 100 μL dimethyl sulfoxide was added to each well to dissolve the formazan crystals. The absorbance was measured at 540 nm on a microplate reader (BioTek Synergy HT). Percentage of cell viability was calculated according to the equation: (OD of treated cells/ OD of untreated cells) × 100.

rhlI mRNA = assay: qRT-PCR of quorum sensing-related gene rhlI; type: cell-based, Pseudomonas aeruginosa; conditions: 800 µM, 10 h
Method: The effects of BmKn‒22 peptide on the expression of quorum sensing‒related genes in P. aeruginosa PAO1 were assessed by qPCR. Briefly, bacterial suspension at approximately 10^7 CFU/mL was cultured in the presence or absence of the test peptide (800 μM, final concentration) at 37 ^OC for 10 h using a shaking incubator. After centrifugation at 4,500 rpm for 10 minutes, the bacterial cells were harvested and subsequently subjected to total RNA extraction using TRIzol® reagent (Invitrogen, USA) as per the manufacturer’s instruction. The concentration of the extracted RNA was measured using Nanodrop spectrophotometer (NanoDrop Technologies, USA). Thereafter, 1 μg of extracted RNA was reverse-transcribed into cDNA using Random Hexamer primer and RevertAid First Strand cDNA synthesis kit (Fermantas), which was amplified by real-time PCR. The primers for the genes lasI, lasR, RhlI, RhlR and 16S rRNA were used (Table 2). All primers were synthesized by the Integrated DNA Technology (IDT), Canada. The reaction mixture consisted of 1× AccuPower® 2X GreenStar™ qPCR Master Mix, 0.4 μmol/L each forward primer and reverse primer and 1 μL of cDNA in a final volume of 10 μL. Thermal cycles used was 95 ^OC for 2.5 min, followed by 40 cycles of 95 ^OC for 30 sec, 60 ^OC for 30 sec and 72 ^OC for 30 sec. The expression level of the target gene was normalized to 16S rRNA gene. Relative expression of the target genes was obtained from 2^‒ΔΔct.

[3] = test system: P. aeruginosa PAO1 biofilm formation; assay: Biofilm formation assay, crystal violet staining; type: cell-based, Pseudomonas aeruginosa
Method: as §1

**Q.** FIGAIARLLSK [BmKn-22] was tested. Which biofilm reduction ([1]; BmKn-22 at 200 µM combined with 64 µg/mL azithromycin (1/2 MIC)) did it give?
**A.** The biofilm reduction was “Up to 51.39%”.

**Q.** What about the biofilm reduction ([1]; BmKn-22 at 400 µM combined with 64 µg/mL azithromycin (1/2 MIC)) of the same sequence?
**A.** The biofilm reduction was at most 62.05%.

**Q.** What about the biofilm reduction ([1]; BmKn-22 at 800 µM combined with 64 µg/mL azithromycin (1/2 MIC)) of the same sequence?
**A.** The biofilm reduction was 96.97%.

**Q.** What about the “Biofilm biomass (% control)” value ([1]; peptide alone 200 µM, 24 h, 37 °C, crystal violet, mean of 3 independent experiments) of the same sequence?
**A.** Its value is 80.903 % control.

**Q.** And the “Biofilm biomass (% control)” value ([1]; peptide alone 200 µM, Exp. 1)?
**A.** Its value is 94.033 % control.

**Q.** And the “Biofilm biomass (% control)” value ([1]; peptide alone 200 µM, Exp. 2)?
**A.** The value was 82.424 % control.

**Q.** What about the “Biofilm biomass (% control)” value ([1]; peptide alone 200 µM, Exp. 3) of the same sequence?
**A.** Its value is 66.251 % control.

**Q.** And the “Biofilm biomass (% control)” value ([1]; peptide alone 400 µM, 24 h, 37 °C, crystal violet, mean of 3 independent experiments)?
**A.** Its value is 67.309 % control.

**Q.** And the “Biofilm biomass (% control)” value ([1]; peptide alone 400 µM, Exp. 1)?
**A.** The value was 75.858 % control.

**Q.** And the “Biofilm biomass (% control)” value ([1]; peptide alone 400 µM, Exp. 2)?
**A.** The value was 68.773 % control.

**Q.** And the “Biofilm biomass (% control)” value ([1]; peptide alone 400 µM, Exp. 3)?
**A.** The value was 57.297 % control.

**Q.** What about the “Biofilm biomass (% control)” value ([1]; peptide alone 800 µM, 24 h, 37 °C, crystal violet, mean of 3 independent experiments) of the same sequence?
**A.** Its value is 43.753 % control.

**Q.** And the “Biofilm biomass (% control)” value ([1]; peptide alone 800 µM, Exp. 1)?
**A.** The value was 51.716 % control.

**Q.** What about the “Biofilm biomass (% control)” value ([1]; peptide alone 800 µM, Exp. 2) of the same sequence?
**A.** The value was 46.698 % control.

**Q.** What about the “Biofilm biomass (% control)” value ([1]; peptide alone 800 µM, Exp. 3) of the same sequence?
**A.** The value was 32.845 % control.

**Q.** What about the “effect on viability of L929 cells” value ([2]; compared with untreated control, result in words) of the same sequence?
**A.** Its value is “low effects on cell viability”.

**Q.** And the “Cell viability (%)” value ([2]; Exp. 1)?
**A.** Its value is 108.407%.

**Q.** And the “Cell viability (%)” value ([2]; Exp. 2)?
**A.** Its value is 75.218%.

**Q.** And the “Cell viability (%)” value ([2]; Exp. 3)?
**A.** Its value is 94.787%.

**Q.** What about the “Relative mRNA expression, rhlI” value (rhlI mRNA; normalized to 16S rRNA, 2^-ΔΔct, untreated control = 1, mean of 2 independent experiments in quadruplicate) of the same sequence?
**A.** The value was 1.127.

**Q.** And the “Relative mRNA expression, rhlI” value (rhlI mRNA; Exp. 1)?
**A.** Its value is 0.929.

**Q.** What about the “Relative mRNA expression, rhlI” value (rhlI mRNA; Exp. 2) of the same sequence?
**A.** Its value is 1.325.

**Q.** And the “mRNA expression of rhlI” value (rhlI mRNA; result in words)?
**A.** Its value is “no alteration”.

**Q.** What about the “Biofilm inhibition (%), biofilm formation” value (“Biofilm inhibition (%)” for short) ([3]; 200 µM, Exp. 1) of the same sequence?
**A.** The value was 27.575%.

**Q.** What about the “Biofilm inhibition (%)” value ([3]; 200 µM, Exp. 2) of the same sequence?
**A.** Its value is 27.680%.

**Q.** And the “Biofilm inhibition (%)” value ([3]; 200 µM, Exp. 3)?
**A.** The value was 8.419%.

**Q.** And the “Biofilm inhibition (%)” value ([3]; 400 µM, Exp. 1)?
**A.** Its value is 20.197%.

**Q.** And the “Biofilm inhibition (%)” value ([3]; 400 µM, Exp. 2)?
**A.** Its value is 40.825%.

**Q.** What about the “Biofilm inhibition (%)” value ([3]; 400 µM, Exp. 3) of the same sequence?
**A.** The value was 37.257%.

**Q.** What about the “reduction of P. aeruginosa biofilms” value ([3]; 800 µM, 24 h, compared with untreated control, result in words) of the same sequence?
**A.** Its value is “marked reduction”.

**Q.** And the “Biofilm inhibition (%)” value ([3]; 800 µM, Exp. 1)?
**A.** The value was 46.468%.

**Q.** And the “Biofilm inhibition (%)” value ([3]; 800 µM, Exp. 2)?
**A.** The value was 53.212%.

**Q.** What about the “Biofilm inhibition (%)” value ([3]; 800 µM, Exp. 3) of the same sequence?
**A.** Its value is 47.945%.
